Laboratory results taken from EP4603105A1, “PHARMACEUTICAL COMPOSITION CONTAINING CYCLIC COMPOUND HAVING SELECTIVE KRAS INHIBITORY EFFECT AGAINST HRAS AND NRAS” (CHUGAI SEIYAKU KABUSHIKI KAISHA, priority 2022, dated 2024).
Where a SMILES comes first, the peptide text is derived from it. Bridges are numbered along the chain shown (N, C = ends). [ ]: non-standard residue; d: D form. hPhe(3,5-F2-4-CF3) = N[C@@H](CCc1cc(F)c(C(F)(F)F)c(F)c1)C(=O)O; NPrPhe(4-CF3) = CCCN[C@@H](Cc1ccc(C(F)(F)F)cc1)C(=O)O; NMeGly(cPent) = CN[C@H](C(=O)O)C1CCCC1; NMeD = CN[C@@H](CC(=O)O)C(=O)O; NMeL = CN[C@@H](CC(C)C)C(=O)O; αMeL = CC(C)C[C@](C)(N)C(=O)O; Sar = CNCC(=O)O

Experiments:
[1] = target: GDP-bound NRAS wild-type protein (Homo sapiens, UniProt P01111); experiment: Binding to NRAS by surface plasmon resonance (SPR), KD and KD ratio to KRAS
Summary of the method: (§1)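 Single-cycle kinetics on GDP-loaded biotin-Avi RAS captured to ~100–300 RU; 75 s ascending injections, 100 µL/min, 30°C. HBS pH 7.4 + 10 mM MgCl2/10 µM GDP/4% DMSO. 1:1 fit, KD.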

HRAS wild-type protein = HRAS wild-type protein (Homo sapiens, UniProt P01112); experiment: Binding to HRAS by surface plasmon resonance (SPR), KD and KD ratio to KRAS
Summary of the method: as §1

[2] = tested on: human lung cancer strain NCI-H441; assay type: cell-based
Summary of the method: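 Proliferation was scored by […] measured after the reagent was added to cultures kept at 37°C in 5% carbon dioxide.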

[3] = ratio of the KD value with respect to GDP-bound NRAS wild-type protein to the KD value with respect to KRAS
[4] = ratio of the KD value with respect to HRAS wild-type protein to the KD value with respect to KRAS
[5] = ratio of KD for GDP-bound NRAS wild-type protein to KD for KRAS
[6] = ratio of KD for HRAS wild-type protein to KD for KRAS

Sequence of GDP-bound NRAS wild-type protein (P01111 whole entry): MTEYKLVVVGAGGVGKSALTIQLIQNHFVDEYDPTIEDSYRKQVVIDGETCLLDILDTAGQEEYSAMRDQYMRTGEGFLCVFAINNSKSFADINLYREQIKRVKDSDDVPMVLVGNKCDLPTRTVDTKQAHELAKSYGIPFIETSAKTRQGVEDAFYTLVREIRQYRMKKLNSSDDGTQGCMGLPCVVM
Sequence of HRAS wild-type protein (P01112 whole entry): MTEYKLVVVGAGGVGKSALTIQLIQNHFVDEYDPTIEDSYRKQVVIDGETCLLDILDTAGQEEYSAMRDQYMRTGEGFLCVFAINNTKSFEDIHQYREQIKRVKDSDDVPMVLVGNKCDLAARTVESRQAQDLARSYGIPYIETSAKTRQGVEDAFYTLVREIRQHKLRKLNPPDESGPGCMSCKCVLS

Row | Structure (SMILES) | IC50 [2] [nM] | NRAS /KRAS [1, 3] | HRAS /KRAS (HRAS wild-type protein; [4]) | NRAS /KRAS ([1]; ratio of KD value for GDP-bound NRAS wild-type protein to KD value for KRAS (SPR)) | HRAS /KRAS (HRAS wild-type protein; ratio of KD value for HRAS wild-type protein to KD value for KRAS (SPR)) | NRAS /KRAS [1, 5] | HRAS /KRAS (HRAS wild-type protein; [6])
1 | CC[C@H](C)[C@@H]1NC(=O)[C@H](CC(C)C)N(C)C(=O)C[C@@H](C(=O)N2CCOCC2)N(C)C(=O)[C@H](C2CCCC2)N(C)C(=O)C2(CCCC2)NC(=O)[C@H](C)N(CC)C(=O)[C@H](CCc2cc(F)c(C(F)(F)F)c(F)c2)NC(=O)CN(C)C(=O)[C@H](Cc2ccc(C(F)(F)F)cc2)N2CCCC[C@@H](C2=O)N(C)C(=O)CN(C)C1=O [PP0589] | 24.8 | B (a compound having 3 or more and less than 10 is denoted as B) | B (a compound having 3 or more and less than 10 is denoted as B) | – | – | – | –
2 | CCCN1C(=O)CN(C)C(=O)CN(C)C(=O)[C@H]([C@@H](C)CC)NC(=O)[C@H](CC(C)C)N(C)C(=O)C[C@@H](C(=O)N(C)C)N(C)C(=O)[C@H](C2CCCC2)N(C)C(=O)[C@](C)(CC(C)C)NC(=O)[C@@H]2CCCN2C(=O)[C@H](CCc2cc(F)c(C(F)(F)F)c(F)c2)NC(=O)CN(C)C(=O)[C@@H]1Cc1ccc(C(F)(F)F)cc1 [PP0738] ([NMeL]I[Sar][Sar][NPrPhe(4-CF3)][Sar][hPhe(3,5-F2-4-CF3)]P[αMeL][NMeGly(cPent)][NMeD]-NMe2; lactam N-11) | 99.2 | B (a compound having 3 or more and less than 10 is denoted as B) | B (a compound having 3 or more and less than 10 is denoted as B) | – | – | – | –
3 | CCO[C@@H]1C[C@H]2C(=O)NC3(CCC3)C(=O)N(C)[C@@H](C3CCCC3)C(=O)N(C)[C@H](C(=O)N3CCOCC3)CC(=O)N(C)[C@@H](COC)C(=O)N[C@@H]([C@@H](C)CC)C(=O)N(C)CC(=O)N(C)[C@H]3CCCCCN(C3=O)[C@@H](Cc3ccc(C(F)(F)F)cc3)C(=O)N(C)CC(=O)N[C@@H](CCc3ccc(C)cc3)C(=O)N2C1 [PP0850] | 3090 | – | – | – | – | B (a compound having 3 or more and less than 10 is denoted as B) | B (a compound having 3 or more and less than 10 is denoted as B)

Continued, in another order:

Row | IC50 [2] [nM] | Structure (SMILES) | NRAS /KRAS [1, 3] | HRAS /KRAS (HRAS wild-type protein; [4]) | NRAS /KRAS ([1]; ratio of KD value for GDP-bound NRAS wild-type protein to KD value for KRAS (SPR)) | HRAS /KRAS (HRAS wild-type protein; ratio of KD value for HRAS wild-type protein to KD value for KRAS (SPR)) | NRAS /KRAS [1, 5] | HRAS /KRAS (HRAS wild-type protein; [6])
4 | 4.8 | CCC[C@H]1C(=O)N[C@@H]([C@@H](C)CC)C(=O)N(C)CC(=O)N(C)[C@H]2C/C=C\CCN(C2=O)[C@@H](Cc2ccc(C)cc2)C(=O)N(C)CC(=O)N[C@@H](CCc2ccc(C(F)(F)F)c(OC)c2)C(=O)N2C[C@H](OCC)C[C@H]2C(=O)NC2(CC(C)(C)C2)C(=O)N(C)[C@@H](C2CCCC2)C(=O)N(C)[C@H](C(=O)N(C)C)CC(=O)N1C [PP1892] | – | – | A (a compound having 10 or more and less than 20 is denoted as A) | B (a compound having 3 or more and less than 10 is denoted as B) | – | –
5 | 5 | CCO[C@@H]1C[C@H]2C(=O)NC3(CCCC3)C(=O)N(C)[C@@H](C3CCCC3)C(=O)N(C)[C@H](C(=O)N(C)C)CC(=O)N(C)[C@@H](CC(C)C)C(=O)N[C@@H]([C@@H](C)CC)C(=O)N(C)CC(=O)N(C)[C@H]3C[C@@H](C)CCN(C3=O)[C@@H](Cc3ccc(C(F)(F)F)cc3)C(=O)N(C)CC(=O)N[C@@H](CCc3cc(F)c(C(F)(F)F)c(F)c3)C(=O)N2C1 [PP1017] | – | – | – | – | C (A compound having a KD ratio of 0.1 or more and less than 3 is denoted as C) | B (a compound having 3 or more and less than 10 is denoted as B)
6 | 10.7 | CCO[C@@H]1C[C@H]2C(=O)NC3(CCC3)C(=O)N(C)[C@@H](C3CCCC3)C(=O)N(C)[C@H](C(=O)N3CCOCC3)CC(=O)N(C)[C@@H](CC(C)C)C(=O)N[C@@H]([C@@H](C)CC)C(=O)N(C)CC(=O)N(C)[C@H]3C[C@@H](C)CCN(C3=O)[C@@H](Cc3ccc(C(F)(F)F)cc3)C(=O)N(C)CC(=O)N[C@@H](CCc3cc(F)c(C(F)(F)F)c(F)c3)C(=O)N2C1 [PP1025] | – | – | – | – | C (A compound having a KD ratio of 0.1 or more and less than 3 is denoted as C) | B (a compound having 3 or more and less than 10 is denoted as B)
